Assay results taken from PubChem BioAssay (NCI).
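Each compound was tested at five concentrations against cells in 96-well plates for 48 hours. TGI denotes the concentration required for complete inhibition of growth.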

Columns and labels:
Assay in all cases: DTP human tumour cell line panel, 48 h
HCT-15 colon = system: HCT-15 colon
UACC-62 melanoma = system: UACC-62 melanoma
SK-MEL-5 melanoma = system: SK-MEL-5 melanoma
MDA-N = system: MDA-N
MCF7 breast = system: MCF7 breast
OVCAR-8 ovarian = system: OVCAR-8 ovarian
SNB-75 CNS = system: SNB-75 CNS
MALME-3M melanoma = system: MALME-3M melanoma
BT-549 breast = system: BT-549 breast
M14 melanoma = system: M14 melanoma
ACHN renal = system: ACHN renal
OVCAR-4 ovarian = system: OVCAR-4 ovarian
KM12 colon = system: KM12 colon
786-0 renal = system: 786-0 renal
TK-10 renal = system: TK-10 renal
PC-3 prostate = system: PC-3 prostate
A549 NSCLC = system: A549 NSCLC
MDA-MB-435 = system: MDA-MB-435

SMILES	TGI (HCT-15 colon) [µM]	TGI (UACC-62 melanoma) [µM]	TGI (SK-MEL-5 melanoma) [µM]	TGI (MDA-N) [µM]	TGI (MCF7 breast) [µM]	TGI (OVCAR-8 ovarian) [µM]	TGI (SNB-75 CNS) [µM]	TGI (MALME-3M melanoma) [µM]	TGI (BT-549 breast) [µM]	TGI (M14 melanoma) [µM]	TGI (ACHN renal) [µM]	TGI (OVCAR-4 ovarian) [µM]	TGI (KM12 colon) [µM]	TGI (786-0 renal) [µM]	TGI (TK-10 renal) [µM]	TGI (PC-3 prostate) [µM]	TGI (A549 NSCLC) [µM]	TGI (MDA-MB-435) [µM]
O=C(Nc1ccc(Cl)cc1)c1cc(S(=O)(=O)Nc2n[nH]c(Nc3ccc4ccccc4c3)n2)c(SSc2cc(Cl)c(C(=O)Nc3ccc(Cl)cc3)cc2S(=O)(=O)Nc2n[nH]c(Nc3ccc4ccccc4c3)n2)cc1Cl	43.7	51.7	40.6	> 84.2	> 64	> 71.9	76.6	43	61.1	59	53.9	97.5	50.4	> 94.3	60.8	69.1	> 100	> 80.3
O=c1[nH]c2cccc([N+](=O)[O-])c2c(=O)n1-c1ccc(Cl)cc1	30.2	23.1	24	26.6	25.5	29.4		27.6	23.7	29.2	25.1	16.4	34.4	55.9	39	38.1	36.3	25.5
O=[N+]([O-])/C(C(Cl)=C(Cl)Cl)=C1\Nc2ccc([N+](=O)[O-])cc2N1	> 100	> 100	> 100	> 100	> 100		> 100	> 100	> 100	> 100	> 100	> 100	> 100	> 100	> 100	> 100	> 100	> 100
CN1CCCC2C(c3ccccc3)C(C3=NCCCC3)C(c3ccccc3)CC21 (stereo unspecified)	> 100	32.4	31.7	41.4	> 100	> 100	38	37.6	> 100	40.4	> 100	> 100	> 100	> 100	> 100	> 100	> 100	36.6
O=S(=O)(O)CCSSCCS(=O)(=O)O	> 1000	> 1000		> 1000	> 1000	> 1000	> 1000	> 1000	> 1000	> 1000	> 1000	> 1000	> 1000	> 1000	> 1000	> 1000	> 1000	> 1000
CC(=O)OCC1OC(NC(=S)Nn2c(=O)[nH]c3ccccc3c2=O)C(OC(C)=O)C(OC(C)=O)C1OC(C)=O (stereo unspecified)	> 100	> 100	> 100	> 100	> 100	> 100	> 100	> 100	> 100	> 100	> 100		> 100	> 100		> 100	> 100	> 100
OCC1OC(NC(=S)NCCC(F)(F)C(F)(F)C(F)(F)C(F)(F)C(F)(F)C(F)(F)F)C(O)C(O)C1O (stereo unspecified)	> 100	> 100	> 100	> 100	> 100		> 100	> 100	> 100	> 100	> 100	> 100	> 100	> 100	> 100	> 100	> 100	> 100
O=C(/C=C/c1cccc([N+](=O)[O-])c1)N1CCN(CCOC(c2ccccc2)c2ccccc2)CC1	> 100	> 100	28.2	> 100	> 100	> 100	> 100	> 100	> 100	> 100	> 100	> 100	87.8	> 100	47.7		> 100	> 100
COc1ccc(CNc2ccn(C3OC(CO)C(O)C3O)c(=O)n2)cc1 (stereo unspecified)	> 100	> 100	> 100	> 100	> 100	> 100		> 100	> 100	> 100	> 100	> 100	> 100	> 100	> 100	> 100	> 100	> 100
CC(C)CCCC(C)[C@H]1CC[C@H]2n3c(nnc3-c3ccccc3)CCC[C@]12C (stereo partly specified)	68.9	27.3	25.1	31	20.7	67.2	35.3	53.1	41.7	30.1		32.5	> 100	34.8	57.2	44.9	28	25.7
